Paper PMC3823643 (Nature structural & molecular biology, 2013)

Legend:
[1] = target: T1, Danio rerio (zebrafish) DHFR (zDHFR) (Danio rerio, UniProt A0A8M1P929); assay: […] HSQC NMR; assay type: binding
T1 sequence (A0A8M1P929 1-190): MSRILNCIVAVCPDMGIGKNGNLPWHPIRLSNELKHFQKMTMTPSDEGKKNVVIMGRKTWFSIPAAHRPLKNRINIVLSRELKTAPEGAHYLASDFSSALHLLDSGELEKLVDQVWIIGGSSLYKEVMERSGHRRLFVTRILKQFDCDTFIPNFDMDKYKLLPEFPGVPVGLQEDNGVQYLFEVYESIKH

[2] = target: E. coli dihydrofolate reductase (ecDHFR) (Escherichia coli, UniProt P0ABQ4); assay: product inhibition of initial rate, absorbance at […] nm; assay type: biochemical
[3] = target: E. coli dihydrofolate reductase (ecDHFR) N23PP S148A (Escherichia coli, UniProt P0ABQ4, INS23P/N23P/S148A); assay: as above; assay type: biochemical
[4] = target: T2, human dihydrofolate reductase (hDHFR) (Homo sapiens, UniProt P00374); assay: X-ray crystal structure; assay type: biochemical
T2 sequence (P00374 1-187): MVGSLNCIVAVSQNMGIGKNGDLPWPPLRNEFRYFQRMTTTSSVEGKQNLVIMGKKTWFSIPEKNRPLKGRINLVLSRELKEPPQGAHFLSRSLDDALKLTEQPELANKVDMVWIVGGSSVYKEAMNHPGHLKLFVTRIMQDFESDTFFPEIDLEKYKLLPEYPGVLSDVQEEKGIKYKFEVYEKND

| SMILES | 15N HSQC NMR [1] | IC50 [2] [µM] | IC50 [3] [µM] | IC50 [4] [µM] |
| --- | --- | --- | --- | --- |
| Nc1nc(=O)c2nc(CNc3ccc(C(=O)N[C@@H](CCC(=O)O)C(=O)O)cc3)cnc2[nH]1 [FOL, folic acid] | Each panel shows a superposition of E– NADP^+–FOL (model Michaelis complex, black) and E–NADP^+– THF |  |  |  |
| NC(=O)c1ccc[n+]([C@@H]2O[C@H](COP(=O)(O)OP(=O)(O)OC[C@H]3O[C@@H](n4cnc5c(N)ncnc54)[C@H](OP(=O)(O)O)[C@@H]3O)[C@@H](O)[C@H]2O)c1 [NADP+, NADP^+] |  | 6520 | 1270 | ~620 |
